Measured values from article PMC12794084, “Radiosynthesis and Preclinical Evaluation of a Novel ^11C‑Labeled Pyrazolopyrimidine Derivative for Positron Emission Tomography Imaging of Phosphodiesterase 2A” (ACS Medicinal Chemistry Letters, 2025).
Like-named read-outs stand apart in the source and are kept apart here.

Columns and labels:
PDE2A [1] = target: T1, PDE2A (Rattus norvegicus, UniProt Q01062); assay: In vitro autoradiography on SD rat brain sections; assay type: binding; details: co-incubation with 1 μM blocker
T1 construct: we first conducted in vitro autoradiography studies on SD rat brain sections; from tissue; host or cells: male Sprague-Dawley rat brain sections (20 μm)
T1 sequence (Q01062 1-928): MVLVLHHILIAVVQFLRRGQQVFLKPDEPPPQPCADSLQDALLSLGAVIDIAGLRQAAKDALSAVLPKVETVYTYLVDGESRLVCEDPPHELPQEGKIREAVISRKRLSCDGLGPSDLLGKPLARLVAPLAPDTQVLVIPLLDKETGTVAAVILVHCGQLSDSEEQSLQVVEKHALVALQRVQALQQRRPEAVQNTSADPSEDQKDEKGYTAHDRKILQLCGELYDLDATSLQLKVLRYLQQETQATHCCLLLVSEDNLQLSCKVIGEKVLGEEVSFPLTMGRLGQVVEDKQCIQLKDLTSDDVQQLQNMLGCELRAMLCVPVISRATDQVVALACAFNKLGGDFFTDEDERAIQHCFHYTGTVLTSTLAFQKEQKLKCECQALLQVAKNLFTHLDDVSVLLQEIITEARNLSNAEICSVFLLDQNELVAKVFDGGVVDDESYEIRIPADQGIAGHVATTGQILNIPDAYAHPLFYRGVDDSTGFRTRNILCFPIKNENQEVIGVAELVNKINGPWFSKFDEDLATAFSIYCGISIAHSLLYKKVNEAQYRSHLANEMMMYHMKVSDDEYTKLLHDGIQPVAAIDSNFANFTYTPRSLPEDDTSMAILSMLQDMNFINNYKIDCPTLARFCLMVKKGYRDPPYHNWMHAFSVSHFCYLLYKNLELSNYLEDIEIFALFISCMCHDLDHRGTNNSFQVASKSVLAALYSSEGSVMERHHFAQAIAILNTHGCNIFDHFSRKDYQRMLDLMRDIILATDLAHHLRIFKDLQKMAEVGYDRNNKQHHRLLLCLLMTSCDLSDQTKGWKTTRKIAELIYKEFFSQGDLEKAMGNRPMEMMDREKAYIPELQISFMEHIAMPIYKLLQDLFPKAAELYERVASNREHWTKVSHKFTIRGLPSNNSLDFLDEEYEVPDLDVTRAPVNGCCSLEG
Description: After incubation, sections were washed three times (2 min each) with prechilled buffer and briefly rinsed in cold distilled water (10 s). The slices were then air-dried and placed on imaging screens for 60 min before being scanned using a BAS5000 system (Fujifilm).

[2] = Dynamic PET imaging in SD rats; assay type: in vivo; details: SD rat, baseline
Description: Dynamic PET imaging was performed using an Inveon PET scanner (Siemens). […] Images were reconstructed using a Hanning filter with a Nyquist cutoff of 0.5 cycles/pixel, with the following framing: 4 × 1 min, 8 × 2 min, and 8 × 5 min. Data analysis was performed using PMOD version 3.4.

[3] = Ex vivo whole-body biodistribution in ddY mice; parameters: species or system mouse; details: 60 min postinjection, i.v.
Description: Decay-corrected radioactivity in each organ was measured using a Wizard automatic gamma counter (PerkinElmer, USA).

[4] = Ex vivo radiometabolite analysis in SD rats; details: SD rat
From the text: Brain and plasma samples were rapidly collected and processed following previously reported procedures.

PDE2A [5] = target: PDE2A (Homo sapiens, UniProt O00408); details: cited from earlier work
Chain of PDE2A (Homo sapiens, UniProt O00408) (O00408 whole entry): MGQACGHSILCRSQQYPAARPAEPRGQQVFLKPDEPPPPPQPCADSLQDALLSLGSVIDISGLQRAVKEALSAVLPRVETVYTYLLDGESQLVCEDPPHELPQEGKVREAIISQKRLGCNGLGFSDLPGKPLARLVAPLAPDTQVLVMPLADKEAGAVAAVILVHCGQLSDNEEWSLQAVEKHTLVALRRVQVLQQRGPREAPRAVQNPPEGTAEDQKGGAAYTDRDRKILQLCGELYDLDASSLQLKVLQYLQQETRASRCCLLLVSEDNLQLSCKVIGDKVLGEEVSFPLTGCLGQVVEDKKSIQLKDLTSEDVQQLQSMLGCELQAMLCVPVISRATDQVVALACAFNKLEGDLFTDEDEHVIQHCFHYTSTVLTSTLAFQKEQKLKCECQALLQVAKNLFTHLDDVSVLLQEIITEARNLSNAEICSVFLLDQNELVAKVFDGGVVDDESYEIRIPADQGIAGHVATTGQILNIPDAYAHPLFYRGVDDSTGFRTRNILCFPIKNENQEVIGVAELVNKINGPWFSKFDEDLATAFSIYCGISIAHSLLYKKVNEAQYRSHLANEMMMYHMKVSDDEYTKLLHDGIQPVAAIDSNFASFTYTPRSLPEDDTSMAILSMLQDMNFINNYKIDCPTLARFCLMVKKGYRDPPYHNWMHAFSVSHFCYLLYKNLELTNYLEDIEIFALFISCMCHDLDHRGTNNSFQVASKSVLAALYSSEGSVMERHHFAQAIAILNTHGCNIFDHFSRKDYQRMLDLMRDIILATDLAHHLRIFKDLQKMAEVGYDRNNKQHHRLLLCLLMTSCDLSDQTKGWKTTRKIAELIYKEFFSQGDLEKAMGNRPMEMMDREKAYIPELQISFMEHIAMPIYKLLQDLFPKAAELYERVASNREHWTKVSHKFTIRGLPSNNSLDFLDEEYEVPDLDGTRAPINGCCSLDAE

[6] = logD by shake flask method with LC-MS/MS analysis; assay type: physicochemical
Unbound brain fraction = assay type: in vitro ADME

COc1ccc(Cc2nn3c([C@@H](CCCc4ccccc4)[C@@H](C)O)nc(C)c3c(=O)[nH]2)cc1OC [BAY 60-7550]
blocking effect on [11C]1 signal in autoradiography (PDE2A [1]): significantly reduced the radiotracer signal in PDE2A-rich regions

Cn1ncc(-c2nn(C)c3ncnc(N4CCC4)c23)c1-c1ccc(C(F)(F)F)cc1 [PF-05085727]
blocking effect on [11C]1 signal in autoradiography (PDE2A [1]): significantly reduced the radiotracer signal in PDE2A-rich regions

Cc1nc(NC2(c3ccc(C(F)(F)F)cc3)CC2)c2cnn([11CH3])c2n1 [[^11C]1]
brain distribution in summed PET images ([2]; 3–20 min): homogeneous distribution | SUVmax (brain uptake) ([2]; at 2 min postinjection): 1.65 | brain SUV ([2]; by 20 min): below 0.5 | small intestine uptake [3]: 11 ± 1.5 % ID/g | % of unchanged form in brain ([4]; 10 min postinjection): 97% | % of unchanged form in plasma ([4]; 10 min postinjection): 54% | % of unchanged form in brain ([4]; 30 min postinjection): 86% | % of unchanged form in plasma ([4]; 30 min postinjection): 34%

Cc1nc(-c2cnn(C)c2-c2ccc(C(F)(F)F)cc2)c2c(N3CC([18F])C3)ncnn12 [[^18F]PF-05270430]
IC50 (PDE2A [5]; literature PET radioligands): 0.5 nM

COc1ccc2nnc3c(C)nc(-c4cc(OCCCC[18F])ccc4F)n3c2n1 [[^18F]TA4]
IC50 (PDE2A [5]; triazine scaffold tracers, ref Schröder et al.): 7.3 nM

Cc1nc(NC2(c3ccc(C(F)(F)F)cc3)CC2)c2cnn(C)c2n1 [compound 1, 1,6-Dimethyl-N-(1-(4-(trifluoromethyl)-phenyl)-cyclopropyl)-1H-pyrazolo[3,4-d]-pyrimidin-4-amine]
logD [6]: 3.88 | f u brain (Unbound brain fraction): 7.2%
